# Assay results from patent US20240358692A1, “TREATMENT OF SCLERODERMA” (Aisa Pharma, Inc., priority 2023, published 2024).
# Tested on: participants with SSc-RP
# Experiment: SHAQ - Visual Analog Scale - Raynaud's
# Assay type: in vivo, human
# Design: SHAQ Visual Analogue Scale - Raynaud's, In-Clinic Visit (Day 12), Mean / SHAQ Visual Analogue Scale - Raynaud's, In-Clinic Visit (Day 12), Median / SHAQ Visual Analogue Scale - Raynaud's: In-Clinic Visit (Day 12), Median: scale not given here
# Settings: for % change VAS Raynauds: SHAQ, mITT Part A
# Text: The SHAQ includes a Raynaud's VAS, which will be reported at screening and each in-clinic visit. The absolute change in Raynaud-VAS, assessed by the participants response to the SHAQ question ‘In the past 7 days, how much have your Raynaud's interfered with your daily activities?’ at baseline and the end of each dosing period will be calculated similar to frequency data as before.
# The standard, validated, patient reported outcome measures tool for SSc patients, the SHAQ, was collected at the time points specified in the study schedules (FIG. 2 and FIGS. 4A and 4B) to assess the participant's quality of life. The SHAQ included a Raynaud's VAS that will also be reported separately.
# [1] = Any Cilnidipine (N = 17), Day 12, PP Population, Part A
# [2] = Cilnidipine 20 mg (N = 4), Day 12, PP Population, Part A
# [3] = Pooled Cilnidipine 10 mg and Cilnidipine 10 mg + Tadalafil 5 mg (N = 9), Day 12, PP Population, Part A
# [4] = Pooled Cilnidipine 20 mg and Cilnidipine 20 mg + Tadalafil 5 mg (N = 7), Modified ITT Population - Part A
# [5] = Pooled Cilnidipine (N = 8), Day 12, PP Population, Part A
# [6] = cilnidipine 10 mg (combination: + tadalafil 5 mg)
# [7] = cilnidipine 20 mg (combination: + tadalafil 5 mg)
structure (smiles),measurement,setting,value
COCCOC(=O)C1=C(C)NC(C)=C(C(=O)OC/C=C/c2ccccc2)C1c1cccc([N+](=O)[O-])c1 (centres unmarked) [Cilnidipine],"SHAQ Visual Analogue Scale - Raynaud's, Change from Baseline, Mean (SD)",[1],−0.696 (1.3935)
same,"SHAQ Visual Analogue Scale - Raynaud's, Change from Baseline, Median",[1],−0.300
same,"SHAQ Visual Analogue Scale - Raynaud's, In-Clinic Visit (Day 12), Mean (SD)",[1],2.022 (1.8357)
same,"SHAQ Visual Analogue Scale - Raynaud's, In-Clinic Visit (Day 12), Median",[1],1.400
same,"SHAQ Visual Analogue Scale - Raynaud's, Percent Change from Baseline, Mean (SD)",[1],−20.44 (55.098) %
same,"SHAQ Visual Analogue Scale - Raynaud's, Percent Change from Baseline, Median",[1],−33.33%
same,"SHAQ Visual Analogue Scale - Raynaud's, Change from Baseline, Median","Cilnidipine 10 mg (N = 4), Day 12, PP Population, Part A",0.350
same,"SHAQ Visual Analogue Scale - Raynaud's, Change from Baseline, Mean",[2],−1.200
same,"SHAQ Visual Analogue Scale - Raynaud's, In-Clinic Visit (Day 12), Median",[2],1.250
same,% change VAS Raynauds,Cilnidipine 20 mg (n = 3),−49%
same,"SHAQ Visual Analogue Scale - Raynaud's, Percent Change from Baseline, Median","Cilnidipine 20 mg, Day 12 vs Baseline, PP Population Part A, sensitivity analysis",−38.67%
same,"SHAQ Visual Analogue Scale - Raynaud's, Change from Baseline, Mean",[3],−0.414
same,"SHAQ Visual Analogue Scale - Raynaud's, Change from Baseline, Median",[3],−0.100
same,"SHAQ Visual Analogue Scale - Raynaud's, In-Clinic Visit (Day 12), Median",[3],2.600
same,"SHAQ Visual Analogue Scale - Raynaud's, Percent Change from Baseline, Mean",[3],−9.97%
same,"SHAQ Visual Analogue Scale - Raynaud's, Percent Change from Baseline, Median",[3],−4.39%
same,"SHAQ Visual Analogue Scale - Raynaud's, Change from Baseline, Median","Pooled Cilnidipine 20 mg and Cilnidipine 20 mg + Tadalafil 5 mg (N = 7), Day 12, Modified ITT Population - Part A",−0.300
same,"SHAQ Visual Analogue Scale - Raynaud's, In-Clinic Visit (Day 12), Mean",[4],1.300
same,"SHAQ Visual Analogue Scale - Raynaud's, In-Clinic Visit (Day 12), Median",[4],0.600
same,"SHAQ Visual Analogue Scale - Raynaud's, In-Clinic Visit (Day 12), Median","Pooled Cilnidipine 20 mg and Cilnidipine 20 mg + Tadalafil 5 mg (N = 8), Day 12, PP Population, Part A",0.850
same,"SHAQ Visual Analogue Scale - Raynaud's, Change from Baseline, Mean (SD)",[5],−0.438 (1.2094)
same,"SHAQ Visual Analogue Scale - Raynaud's, In-Clinic Visit (Day 12), Mean",[5],1.900
same,"SHAQ Visual Analogue Scale - Raynaud's, In-Clinic Visit (Day 12), Mean (SD)",[5],1.900 (1.6861)
same,"SHAQ Visual Analogue Scale - Raynaud's, Percent Change from Baseline, Mean (SD)",[5],−18.62 (75.571) %
same,% change VAS Raynauds,Pooled Cilnidipine (n = 7),−17%
same,"SHAQ Visual Analogue Scale - Raynaud's: Change from Baseline, Median","Sensitivity Analysis (diagnosis of SSc), Modified ITT, Part A, Day 12, Any Cilnidipine (N = 14)",−0.300
same,"SHAQ Visual Analogue Scale - Raynaud's: Percent Change from Baseline, Mean","Sensitivity Analysis (diagnosis of SSc), Modified ITT, Part A, Day 12, Pooled Cilnidipine (N = 6)",−18.64%
same,"SHAQ Visual Analogue Scale - Raynaud's: In-Clinic Visit (Day 12), Median","Sensitivity Analysis (diagnosis of SSc), Modified ITT, Part A, Day 12, arms Cilnidipine 10 mg, Tadalafil 5 mg, Cilnidipine 10 mg + Tadalafil 5 mg",2.600
same,"SHAQ Visual Analogue Scale - Raynaud's: In-Clinic Visit (Day 12), Median","Sensitivity Analysis (diagnosis of SSc), Modified ITT, Part A, Day 12, arms Cilnidipine 20 mg, Cilnidipine 20 mg + Tadalafil 5 mg",1.100
same,VAS Raynaud's Change from Baseline Max,[6],1.50
same,VAS Raynaud's Change from Baseline Median,[6],0.350
same,VAS Raynaud's Change from Baseline Min,[6],−0.90
same,VAS Raynaud's Change from Baseline Q1,[6],−0.500
same,VAS Raynaud's Change from Baseline Q3,[6],1.150
same,VAS Raynaud's Day 12 Max,[6],4.30
same,VAS Raynaud's Day 12 Median,[6],1.700
same,VAS Raynaud's Day 12 Min,[6],0.00
same,VAS Raynaud's Day 12 Q1,[6],0.400
same,VAS Raynaud's Day 12 Q3,[6],3.450
same,VAS Raynaud's Percent Change from Baseline Max,[6],136.4%
same,VAS Raynaud's Percent Change from Baseline Mean,[6],11.36%
same,VAS Raynaud's Percent Change from Baseline Median,[6],−2.27%
same,VAS Raynaud's Percent Change from Baseline Min,[6],−100.0%
same,VAS Raynaud's Percent Change from Baseline Q1,[6],−100.00%
same,VAS Raynaud's Change from Baseline Max,[7],−0.30
same,VAS Raynaud's Change from Baseline Mean,[7],−1.267
same,VAS Raynaud's Change from Baseline Median,[7],−1.100
